Experimental data published in patent US20150031655A1, “COMBINATION OF LIVER X RECEPTOR MODULATOR AND ESTROGEN RECEPTOR MODULATOR FOR THE TREATMENT OF AGE-RELATED DISEASES” (UNIVERSITY OF NORTH DAKOTA, priority 2011, published 2015).
Each block holds one molecule with its values, some of them ahead of it.

Legend:
α-synuclein = assay: Western blot of α-synuclein protein levels in SH-SY5Y cells; assay type: cell-based, human; details: for basal α-synuclein expression levels: treatment alone vs control
Description: (§1) Human neuroblastoma SH-SY5Y cells were grown in DMEM/F12 medium containing 10% fetal bovine serum (FBS) and 1% antibiotic/antimycotic mix. Cells were maintained at 37° C. in a saturated humidity atmosphere containing 95% air and 5% CO2.
(§2) Treated SH-SY5Y cells were washed with PBS and trypsinized to collect the cells and centrifuged at 5000 g. The pellet was washed again with PBS and homogenized in NE-PER tissue protein extraction reagent (Thermo Scientific, Rockford, Ill.) supplemented with protease and phosphatase inhibitors. Protein concentrations from the cytosolic and nuclear homogenates were determined with BCA protein assay.
(§3) Proteins (10 μg) were separated on SDS-PAGE gels, transferred to a polyvinylidene difluoride membrane (BioRad, Hercules, Calif.), and incubated with the following monoclonal antibodies: anti-TH mouse antibody (1:1000; Sigma Aldrich, Saint Louis, Mo.), anti-α-synuclein mouse antibody (1:500; Chemicon, Temecula, Calif.), anti-ERα rabbit antibody (1:500; Abcam, Cambridge, Mass.), anti-ERβ rabbit antibody (1:200; Upstate, Lake Placid, N.Y.), anti-LXRα rabbit antibody (1:500; Abcam, Cambridge, Mass.), anti-LXRβ mouse antibody (1:500; Abcam, Cambridge, Mass.).
(§4) β-actin and Lamin A were used as a gel loading control for cytosolic homogenates and nuclear homogenates respectively. The blots were developed with enhanced chemiluminescence (Immmun-star HRP chemiluminescent kit, Bio-Rad, Hercules, Calif.). Bands were visualized on a polyvinylidene difluoride membrane and analyzed by LabWorks 4.5 software on a UVP Bioimaging System (Upland, Calif.). Quantification of results was performed by densitometry and the results analyzed as total integrated densitometric values (arbitrary units).

[1] = tested on: experimental intracerebral hemorrhage; details: 10 μmol.Kg^−1.day^−1 i.p.; cited from earlier work
[2] = in vivo; cited from earlier work
[3] = tested on: human neuroblastoma cells; details: cited from earlier work
ERβ = molecular target: T1, ERβ (Homo sapiens, UniProt Q92731); assay: Western blot of ERβ levels in the nucleus (nuclear translocation), SH-SY5Y cells; assay type: cell-based; details: 24 h
T1 construct: endogenous in cells; host or cells: SH-SY5Y human neuroblastoma cells
Description: as §1, §2, §3, §4

TH = assay: Western blot of TH protein levels in SH-SY5Y neuroblastoma cells; assay type: cell-based, human; details: 24 h
Description: as §1, §2, §3, §4

TNF-α = TNF-α levels in ARPE-19 cells; assay type: cell-based; details: ARPE-19, 24 h, co-treatment with 27-OHC, all at 10 μM
TH mRNA = assay: Real time RT-PCR of TH mRNA in SH-SY5Y cells; assay type: cell-based, human; details: 24 h
Description: as §1
Total RNA was isolated and extracted from treated cells using the 5 prime “PerfectPure RNA tissue kit” (5 Prime, Inc., Gaithersburg, Md.). RNA estimation was performed using “Quant-iT RNA Assay Kit” using a Qubit fluorometer according to the manufacturer's protocol (Invitrogen, Carlsbad, Calif.). cDNA was synthesized by reverse transcribing 1 μg of extracted RNA using an “iScript cDNA synthesis kit” (BioRad, Hercules, Calif.). The oligomeric primers (Sigma, St Louis, Mo.) used to amplify the TH mRNA and α-synuclein mRNA are enumerated in Table 1. The cDNA amplification was performed using an iQ SYBR Green Supermix kit following the manufacturer's instructions (BioRad, Hercules, Calif.). The amplification was performed using an iCycler iQ Multicolor Real Time PCR Detection System (BioRad, Hercules, Calif.). The expression of specific TH and α-synuclein transcripts amplified were normalized to the expression of glyceraldehyde-3-phosphate dehydrogenase (GAPDH).

ERα/β = assay: EMSA, binding of nuclear ER to probe for the ERE half site in the TH promoter; assay type: cell-based, human
TH promoter = assay: Dual-luciferase TH promoter assay; assay type: cell-based, human
Description: Constructs encoding ERE and TH promoter conjugated to the firefly luciferase gene were used in the study. Human neuroblastoma SH-SY5Y cells were plated in 96-well plates at a density of 2×10^4 cells/well. The cells were transfected when 80% confluent with 0.25 μg of either ERE-firefly Luciferase reporter construct, LXRE-firefly Luciferase reporter construct, or TH promotor-firefly Luciferase promoter construct. Respective non-inducible reporter constructs containing constitutively expressing Renilla luciferase were used as negative internal controls. Constitutively expressing GFP constructs were used as positive control to determine transfection efficiency. Cells were incubated for 24 hours with Opti-MEM serum free medium (Invitrogen, Carlsbad, Calif.) containing the reporter constructs dissolved in transfection reagent. After 24 hours the medium was changed and the cells were incubated in normal DMEM/F12 medium containing 10% FBS and cells were treated with the different treatment regimens. The cells were treated in triplicate and harvested 24 hours later and subjected to dual-luciferases assay. The dual-luciferase assay was performed using a “Dual-Luciferase Reporter Assay System” from Promega (Madison, Wis.). The luminescence recorded is expressed as Relative Luminescence Units (RLU) and normalized to per mg protein. Unit value was assigned to control and the magnitude of differences among the samples is expressed relative to the unit value of control cells.

ARPE-19 cells = assay: ROS levels in ARPE-19 cells; assay type: cell-based; details: ARPE-19, 24 h, co-treatment with 27-OHC, all at 10 μM

T1 sequence (Q92731 whole entry): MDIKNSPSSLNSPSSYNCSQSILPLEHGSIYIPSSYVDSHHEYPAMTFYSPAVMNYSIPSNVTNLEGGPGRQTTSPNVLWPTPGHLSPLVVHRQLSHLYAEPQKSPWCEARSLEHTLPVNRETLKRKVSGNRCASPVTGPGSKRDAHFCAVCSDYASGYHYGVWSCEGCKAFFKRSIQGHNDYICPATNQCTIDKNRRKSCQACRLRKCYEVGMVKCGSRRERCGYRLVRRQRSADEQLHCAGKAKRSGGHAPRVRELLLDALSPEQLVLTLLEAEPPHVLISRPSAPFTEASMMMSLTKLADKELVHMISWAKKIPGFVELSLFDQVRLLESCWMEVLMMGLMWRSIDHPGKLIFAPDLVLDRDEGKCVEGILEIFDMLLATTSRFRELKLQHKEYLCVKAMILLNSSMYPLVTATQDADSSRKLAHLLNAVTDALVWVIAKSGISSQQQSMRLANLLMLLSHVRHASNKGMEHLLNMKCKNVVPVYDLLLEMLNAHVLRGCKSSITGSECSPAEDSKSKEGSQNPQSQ

Structure (SMILES): C[C@]12CC[C@@H]3c4ccc(O)cc4C[C@@H](CCCCCCCCC[S+]([O-])CCCC(F)(F)C(F)(F)F)[C@H]3[C@@H]1CC[C@@H]2O (some centres unmarked) [ICI 182780, Fulvestrant]
basal α-synuclein expression levels (α-synuclein): no effect

Structure (SMILES): CCC1=C(C)c2cc3[n-]c(cc4[n-]c(cc5nc(cc1n2)C(C)=C5CC)c(C)c4CCC(=O)O)c(CCC(=O)O)c3C.[Cl-].[Cl-].[Sn+4] [SnMP, Tin-mesoporphyrin IX]
protection against experimental intracerebral hemorrhage [1]: protect | blood brain barrier passage [2]: crosses

Structure (SMILES): CC(C)C(O)CC[C@@H](C)[C@H]1CC[C@H]2[C@@H]3CC=C4C[C@@H](O)CC[C@]4(C)[C@H]3CC[C@]12C (some centres unmarked) [24-OHC, 24-hydroxycholesterol]
27-OHC-induced effects on TH [3]: reverse | 27-OHC-induced effects on α-synuclein [3]: reverse

27-OHC-induced attenuation in the nuclear translocation of ERβ (ERβ; concomitant with 10 μM 27-OHC): completely reduced | nuclear translocation / nuclear levels of ERβ (ERβ; treatment alone vs control): increases | binding of nuclear ER to the DNA probe corresponding to the ERE-half site on the TH promoter (ERα/β): significantly increases | inhibitory effects of 27-OHC on binding of ER to the exogenous DNA probe (ERα/β): completely reverses | 27-OHC-induced reduction of TH promoter activity (TH promoter; concomitant with 27-OHC): completely reversed
Structure (SMILES): C[C@]12CC[C@@H]3c4ccc(O)cc4CC[C@H]3[C@@H]1CC[C@@H]2O [estradiol, 17β-estradiol]
effect of ECHS on 27-OHC-induced increase in α-synuclein expression (α-synuclein; estradiol added to 27-OHC+ECHS): does not alter | α-synuclein expression (α-synuclein; in combination with ECHS): no effect | basal α-synuclein expression levels (α-synuclein): no effect | TH protein levels (TH; concomitant with 10 μM 27-OHC, compared to control or 27-OHC): significant increase | TH protein levels / TH expression (TH; treatment alone vs control (10 μM 27-OHC, 1 nM estradiol, 10 μM GW3965, 10 μM ECHS)): profound increase | 27-OHC-induced increase in TNF-α levels (TNF-α): reduced | 27-OHC-induced attenuation of TH mRNA (TH mRNA; concomitant with 10 μM 27-OHC): completely reversed | TH mRNA (TH mRNA; treatment alone vs control): increase | increase in basal TH promoter activity (TH promoter; SH-SY5Y transfected with TH promoter-luciferase, 24 h): 2.5 fold | 27-OHC-induced increase in ROS levels (ARPE-19 cells): not
